Test results published in PubChem BioAssay AID330 (DTP/NCI, 2004).
“And” between values parts separate entries of the source, which are not always exact repeats. Equal entries are not always repeated. Toxic doses and inconclusive results are not listed.

System: P388 leukemia ip, CD2F1 mice, survival T/C
Test: NCI In Vivo Anticancer Drug Screen. Data for tumor model P388 Leukemia (intraperitoneal) in CD2F1 (CDF1) mice
Details: endpoint: median survival time, higher = longer survival
How it was run: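 Mice carrying the transplanted tumor received test compound or vehicle. Survival was recorded in each group, and the value is the treated-group measurement divided by that of the vehicle-treated control group.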

[1] = dose: 25.0 mg/kg/injection, schedule: Q01DX005 (ip), vehicle: Klucel (hydroxypropylcellulose) (HPC)
[2] = dose: 50.0 mg/kg/injection, schedule: Q01DX005 (ip), vehicle: Klucel (hydroxypropylcellulose) (HPC)
[3] = dose: 100.0 mg/kg/injection, schedule: Q01DX005 (ip), vehicle: Klucel (hydroxypropylcellulose) (HPC)
[4] = dose: 200.0 mg/kg/injection, schedule: Q01DX005 (ip), vehicle: Klucel (hydroxypropylcellulose) (HPC)
[5] = dose: 100.0 mg/kg/injection, schedule: Q01DX009 (ip), vehicle: saline with Tween-80
[6] = dose: 200.0 mg/kg/injection, schedule: Q01DX009 (ip), vehicle: saline with Tween-80
[7] = dose: 400.0 mg/kg/injection, schedule: Q01DX009 (ip), vehicle: saline with Tween-80
[8] = dose: 50.0 mg/kg/injection, schedule: Q01DX005 (ip), vehicle: saline with Tween-80
[9] = dose: 100.0 mg/kg/injection, schedule: Q01DX005 (ip), vehicle: saline with Tween-80
[10] = dose: 50.0 mg/kg/injection, schedule: Q01DX009 (ip), vehicle: saline
[11] = dose: 100.0 mg/kg/injection, schedule: Q01DX009 (ip), vehicle: saline
[12] = dose: 200.0 mg/kg/injection, schedule: Q01DX009 (ip), vehicle: saline
[13] = dose: 60.0 mg/kg/injection, schedule: Q01DX005 (ip), vehicle: saline with Tween-80
[14] = dose: 120.0 mg/kg/injection, schedule: Q01DX005 (ip), vehicle: saline with Tween-80
[15] = dose: 240.0 mg/kg/injection, schedule: Q01DX005 (ip), vehicle: saline with Tween-80
[16] = dose: 200.0 mg/kg/injection, schedule: Q01DX005 (ip), vehicle: saline with Tween-80
[17] = dose: 60.0 mg/kg/injection, schedule: Q01DX005 (ip), vehicle: saline
[18] = dose: 120.0 mg/kg/injection, schedule: Q01DX005 (ip), vehicle: saline
[19] = dose: 240.0 mg/kg/injection, schedule: Q01DX005 (ip), vehicle: saline

`O.O.[Cu+2].[Cu+2].[NH-]CCC(=O)[N-]C(Cc1cnc[nH]1)C(=O)O.[NH-]CCC(=O)[N-]C(Cc1cnc[nH]1)C(=O)O` (centres undefined) was tested, and the T/C (dose: 6.25 mg/kg/injection, schedule: Q01DX005 (ip), vehicle: Klucel (hydroxypropylcellulose) (HPC)) was 98 % of control, the T/C (dose: 12.5 mg/kg/injection, schedule: Q01DX005 (ip), vehicle: Klucel (hydroxypropylcellulose) (HPC)) was 97 % of control and the T/C [1] was 106 % of control.

In the case of `CC(=NCCCCN=C(C)c1cc(C)ccc1O)c1cc(C)ccc1O`, the T/C [2] is reported as 98 % of control, the T/C [3] is reported as 100 % of control and the T/C [4] is reported as 103 % of control.

`CC(O)C(NC(=O)OCC1c2ccccc2-c2ccccc21)C(=O)O` (centres undefined) was tested, and the T/C [2] was 104 % of control, the T/C [3] was 100 % of control and the T/C [4] was 107 % of control.

For `Cc1cc2cc3c(C)cc(=O)oc3c(C)c2o1`, the T/C [5] was 118 % of control, the T/C [6] was 112 % of control and the T/C [7] was 102 % of control.

In the case of `c1ccc2c(c1)nnc1ccccc12`, the T/C (dose: 50.0 mg/kg/injection, schedule: Q01DX005 (ip), vehicle: Klucel + Tween-80) is reported as 102 % of control, the T/C (dose: 100.0 mg/kg/injection, schedule: Q01DX005 (ip), vehicle: Klucel + Tween-80) is reported as 96 % of control and the T/C (dose: 200.0 mg/kg/injection, schedule: Q01DX005 (ip), vehicle: Klucel + Tween-80) is reported as 102 % of control.

For `CC1OC(OC2C(CO)OC(O[C@H]3CC[C@@]4(C)C(=CC[C@H]5[C@@H]6C[C@@H]7O[C@]8(CC[C@@H](C)CN8)[C@@H](C)[C@@H]7[C@@]6(C)CC[C@@H]54)C3)C(O)C2O)C(O)C(O)C1O` (some centres undefined), the T/C (dose: 12.5 mg/kg/injection, schedule: Q01DX005 (ip), vehicle: acid diluted with saline) was 101 % of control, the T/C (dose: 25.0 mg/kg/injection, schedule: Q01DX005 (ip), vehicle: acid diluted with saline) was 105 % of control and the T/C (dose: 50.0 mg/kg/injection, schedule: Q01DX005 (ip), vehicle: acid diluted with saline) was 105 % of control and 87 % of control. The T/C (dose: 100.0 mg/kg/injection, schedule: Q01DX005 (ip), vehicle: acid diluted with saline) was 105 % of control.

With `CC1(C)[C@@H]2CC[C@]3(C)[C@H]4CC[C@]5(C)[C@@H](O)CC[C@H]5[C@@H]4CC[C@]3(O2)[C@@H]1O` the T/C [8] was 91 % of control and the T/C [9] was 91 % of control.

In the case of `CC1C(=O)C=C(c2ccccc2)C1(O)c1ccccc1` (centres undefined), the T/C (dose: 100.0 mg/kg/injection, schedule: Q01DX001 (ip), vehicle: saline with Tween-80) is reported as 104 % of control and the T/C (dose: 200.0 mg/kg/injection, schedule: Q01DX001 (ip), vehicle: saline with Tween-80) is reported as 103 % of control.

With `N#Cc1[nH]nc(N)c1C#N` the T/C (dose: 100.0 mg/kg/injection, schedule: Q01DX001 (ip), vehicle: water) was 103 % of control, the T/C (dose: 200.0 mg/kg/injection, schedule: Q01DX001 (ip), vehicle: water) was 103 % of control and the T/C (dose: 400.0 mg/kg/injection, schedule: Q01DX001 (ip), vehicle: water) was 98 % of control.

`CC(=O)Oc1cc2nc3ccccc3nc2cc1N(C)C` was tested, and the T/C [10] was 99 % of control, the T/C [11] was 90 % of control and the T/C [12] was 100 % of control.

For `CC(O)COc1ccccc1P(c1ccccc1)c1ccccc1` (centres undefined), the T/C [1] was 104 % of control and 95 % of control, the T/C [2] was 104 % of control and 109 % of control and 97 % of control and the T/C [3] was 101 % of control and 109 % of control and 91 % of control. The T/C [4] was 104 % of control and 92 % of control.

With `O=C1NC2(CCCCC2)C(=O)N1CCN1C(=O)NC2(CCCCC2)C1=O` the T/C (dose: 0.75 mg/kg/injection, schedule: Q01DX009 (ip), vehicle: saline) was 104 % of control, the T/C (dose: 1.5 mg/kg/injection, schedule: Q01DX009 (ip), vehicle: saline) was 91 % of control and the T/C (dose: 3.0 mg/kg/injection, schedule: Q01DX009 (ip), vehicle: saline) was 106 % of control. The T/C (dose: 6.0 mg/kg/injection, schedule: Q01DX009 (ip), vehicle: saline) was 118 % of control and the T/C (dose: 12.0 mg/kg/injection, schedule: Q01DX009 (ip), vehicle: saline) was 106 % of control.

For `COc1ccc(/C=N\Nc2cc(C)nc3ccc(C4CCCCC4)cc23)c2ccccc12`, the T/C [13] was 99 % of control, the T/C [14] was 104 % of control and the T/C [15] was 93 % of control.

With `Cn1c(CCCCCCCCc2c(C(=O)/C=C/c3ccccc3)c(=O)n(C)c(=O)n2C)c(C(=O)/C=C\c2ccccc2)c(=O)n(C)c1=O` the T/C [8] was 88 % of control, the T/C [9] was 90 % of control and the T/C [16] was 90 % of control.

`COC(=O)CCCCCC(O)C1CCC2OC(=O)CC21C` (centres undefined) was tested, and the T/C [5] was 118 % of control, the T/C [6] was 100 % of control and the T/C [7] was 100 % of control.

In the case of `COc1cccc(Nc2ncnc3c2c(=O)n(C)c(=O)n3C)c1`, the T/C (dose: 25.0 mg/kg/injection, schedule: Q01DX005 (ip), vehicle: saline with Tween-80) is reported as 91 % of control, the T/C [8] is reported as 87 % of control and the T/C [9] is reported as 87 % of control.

`C=CCC1C=CC=CN1C(=O)OCC` (centres undefined) was tested, and the T/C [17] was 113 % of control, the T/C [18] was 113 % of control and the T/C [19] was 98 % of control.

`CN=C(N)N` was tested, and the T/C (dose: 50.0 mg/kg/injection, schedule: Q01DX001 (ip), vehicle: saline) was 100 % of control, the T/C (dose: 100.0 mg/kg/injection, schedule: Q01DX001 (ip), vehicle: saline) was 98 % of control and the T/C (dose: 200.0 mg/kg/injection, schedule: Q01DX001 (ip), vehicle: saline) was 100 % of control. The T/C (dose: 400.0 mg/kg/injection, schedule: Q01DX001 (ip), vehicle: saline) was 101 % of control.

`COC(OC)C(C)(C)NC1CCCCC1` was tested, and the T/C [10] was 105 % of control and the T/C [11] was 104 % of control.

For `CCOP(=O)(Nc1c(Cl)cc2c(c1Cl)Cc1cc([N+](=O)[O-])ccc1-2)OCC`, the T/C [2] was 92 % of control, the T/C [3] was 88 % of control and the T/C [4] was 88 % of control.

`CCCCCOc1ccc(C(=O)Oc2ccc(N=Nc3nccs3)cc2)cc1` was tested, and the T/C [8] was 98 % of control, the T/C [9] was 101 % of control and the T/C [16] was 96 % of control.

For `OCC1OC(c2ccc(O)cc2O)C(O)C1O` (centres undefined), the T/C [10] was 102 % of control, the T/C [11] was 96 % of control and the T/C (dose: 100.0 mg/kg/injection, schedule: Q04DX003 (ip), vehicle: saline) was 95 % of control. The T/C [12] was 105 % of control, the T/C (dose: 200.0 mg/kg/injection, schedule: Q04DX003 (ip), vehicle: saline) was 98 % of control and the T/C (dose: 400.0 mg/kg/injection, schedule: Q04DX003 (ip), vehicle: saline) was 95 % of control.

`CCN1Cc2c(/C=C/c3ccccc3)nc3ccc(OC)cc3c2N(c2cccc(Cl)c2)C1` was tested, and the T/C (dose: 25.0 mg/kg/injection, schedule: Q01DX009 (ip), vehicle: Klucel (hydroxypropylcellulose) (HPC)) was 103 % of control, the T/C (dose: 50.0 mg/kg/injection, schedule: Q01DX009 (ip), vehicle: Klucel (hydroxypropylcellulose) (HPC)) was 94 % of control and the T/C (dose: 100.0 mg/kg/injection, schedule: Q01DX009 (ip), vehicle: Klucel (hydroxypropylcellulose) (HPC)) was 102 % of control. The T/C (dose: 200.0 mg/kg/injection, schedule: Q01DX009 (ip), vehicle: Klucel (hydroxypropylcellulose) (HPC)) was 98 % of control.

`COCOc1c(C)ccc2c1CCC2` was tested, and the T/C (dose: 100.0 mg/kg/injection, schedule: Q04DX002 (ip), vehicle: saline with Tween-80) was 91 % of control, the T/C (dose: 200.0 mg/kg/injection, schedule: Q04DX002 (ip), vehicle: saline with Tween-80) was 97 % of control and the T/C (dose: 400.0 mg/kg/injection, schedule: Q04DX002 (ip), vehicle: saline with Tween-80) was 95 % of control.

For `CC1(C)N=C(N)N=C(N)N1c1ccc(OCCCNC(=O)Nc2cccc(S(=O)(=O)F)c2)c(Cl)c1`, the T/C (dose: 25.0 mg/kg/injection, schedule: Q01DX009 (ip), vehicle: saline) was 179 % of control, the T/C [10] was 190 % of control and the T/C [11] was 209 % of control.

In the case of `CC(=O)OC(C)(C)/C=C/C(=O)[C@](C)(O)[C@H]1[C@H](O)C[C@@]2(C)[C@@H]3CC=C4[C@@H](CC[C@H](O)C4(C)C)[C@]3(CO)C(=O)C[C@]12C`, the T/C (dose: 0.6 mg/kg/injection, schedule: Q01DX009 (ip), vehicle: saline sonified) is reported as 100 % of control, the T/C (dose: 1.2 mg/kg/injection, schedule: Q01DX009 (ip), vehicle: saline sonified) is reported as 100 % of control and the T/C (dose: 2.4 mg/kg/injection, schedule: Q01DX009 (ip), vehicle: saline sonified) is reported as 116 % of control.

For `COc1ccccc1C(=O)c1ccccc1C(=O)O`, the T/C [2] was 101 % of control, the T/C [3] was 105 % of control and the T/C [4] was 103 % of control.

In the case of `c1ccc(-c2nc3cccnc3s2)cc1`, the T/C [13] is reported as 101 % of control, the T/C [14] is reported as 101 % of control and the T/C [15] is reported as 104 % of control.

With `CC1(C)C2CC[C@@]1(CS(=O)(=O)N(CCCl)CCCl)C(=O)C2` the T/C (dose: 30.0 mg/kg/injection, schedule: Q01DX005 (ip), vehicle: saline) was 99 % of control, the T/C [17] was 98 % of control and the T/C [18] was 96 % of control. The T/C [19] was 96 % of control.
